Like-named read-outs stand apart in the source and are kept apart here.
Legend:
dopamine D2 receptors [1] = molecular target: T1, dopamine D2 receptors (Homo sapiens (Human), UniProt P14416); assay: Affinity for dopamine D2 receptors, radioligand competition with [3H]-Methylspiperone; format: binding; conditions: 293T membrane transiently expressing D2
dopamine D2 receptors [2] = molecular target: T1, dopamine D2 receptors; assay: Dopamine D2 receptor Gαi1 BRET (G protein trimer dissociation); format: cell-based; conditions: for Emax: read-out: Gαi1 BRET (Emax %);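 as to all read-outs here: transfected cells co-expressing D2 receptor, Gαi1-Rluc, Gβ3 and Gγ9-GFP, BRET with coelenterazine 400a at 5 µM read as G protein trimer dissociation, graded drug concentrations in duplicate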
Protocol: (§1) To examine the downstream G protein signaling pathway mediated by dopamine D2 receptors, on the first day, a 6 cm culture dish was used for transfection with 1 μg of dopamine D2 receptors, 1 μg of Gαi1 containing a C-terminal seaweed luciferase (Gαi1-Rluc), 1 μg of Gβ3, 1 μg of Gγ9 containing C-terminal green fluorescent protein (Gγ9-GFP), and 16 μL of PEI. At the same time, in order to examine the downstream β-arrestin2 signaling pathway mediated by dopamine D2 receptors, on the first day, a 6 cm culture dish was used for transfection with 500 μg of dopamine D2 receptors containing C-terminal seaweed luciferase (D2-Rluc), 500 μg of G protein-coupled receptor kinase 2 (GRK2), 2500 μg of β-arrestin2 containing N-terminal green fluorescent protein (GFP2-ARRB2) mixed with 14 μL of PEI. The next day, the confluent cells of a 6 cm culture dish were digested and reseeded into a 96-well plate with 100 μL of culture medium added to each well. On the third day, the drugs were added for test. The 96-well plate was taken out from the cell incubator to decant the culture medium, 40 μL of the substrate coelenterazine 400a (final concentration of 5 μM) was added to each well, and then 20 μL of different drugs were added sequentially from left to right to ensure that the final concentration of the drug decreased gradually from bottom to top, with two replicates per treatment. Finally, the prepared samples were loaded on machine for test. The machine readout value reflected the recruitment of β-arrestin2 to the membrane or the dissociation of G protein trimer. The former indicated the degree of activation of the β-arrestin2 signaling pathway downstream of the dopamine D2 receptors, and the latter indicated the degree of activation of the G protein signaling pathway downstream of the dopamine D2 receptors.

dopamine D2 receptors [3] = molecular target: T1, dopamine D2 receptors; assay: Dopamine D2 receptor β-arrestin2 BRET (recruitment); format: cell-based; conditions: for Emax: read-out: β-arrestin2 BRET (Emax %);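 as to all read-outs here: cells co-expressing Rluc-fused D2 receptor, GRK2 and GFP2-fused β-arrestin2, BRET read with coelenterazine 400a after adding drug over a concentration series, in duplicate wells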
Protocol: as §1

5-HT2A receptor [4] = molecular target: T2, 5-HT2A receptor (Homo sapiens (Human), UniProt P28223); assay: Affinity for 5-HT2A receptors, radioligand competition with [3H]-ketanserin; format: binding; conditions: 293T membrane transiently expressing 5-HT2A
T2 sequence (P28223 whole entry): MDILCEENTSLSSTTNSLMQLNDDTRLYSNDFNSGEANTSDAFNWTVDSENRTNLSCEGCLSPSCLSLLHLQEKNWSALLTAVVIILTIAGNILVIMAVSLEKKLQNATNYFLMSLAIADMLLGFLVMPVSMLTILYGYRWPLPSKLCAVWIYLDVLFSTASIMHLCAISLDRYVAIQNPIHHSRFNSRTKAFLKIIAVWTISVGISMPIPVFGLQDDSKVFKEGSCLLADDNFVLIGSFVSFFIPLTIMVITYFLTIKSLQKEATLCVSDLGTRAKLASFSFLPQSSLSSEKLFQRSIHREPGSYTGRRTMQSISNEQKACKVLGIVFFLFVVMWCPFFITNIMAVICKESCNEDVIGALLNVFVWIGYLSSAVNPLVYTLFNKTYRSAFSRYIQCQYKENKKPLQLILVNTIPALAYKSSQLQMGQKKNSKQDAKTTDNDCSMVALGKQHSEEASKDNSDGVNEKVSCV
Protocol: The affinity of the compounds of the present disclosure for the 5-HT2A receptors was determined by the method of radioligand competition experiment. In the first step, a cell membrane component containing specific 5-HT2A receptor was prepared. A 10 cm dish was used for transfection with 10 ng of the 5-HT2A receptor and 40 μL of PEI. After 48 hours, the 10 cm dish was taken out from the cell incubator and the cultured cells had expressed the 5-HT2A receptor. A vacuum pump was used to suck off the culture medium, 3 mL of lysis buffer was added to each culture dish, and the cells were placed in a 4° C. cold room for 10 minutes. After the cells were detached, the cells were transferred to a 15 mL centrifuge tube and centrifuged at 1500 rpm for 5 minutes at 4° C., and the supernatant was discarded. The cell pellet was transferred to a tissue homogenizer, and 3 mL of lysis buffer was added and fully ground until the cells were broken. Then, cell suspension was equally aliquoted into several EP tubes, centrifuged at 12000 rpm for 5 minutes at 4° C., and the supernatant was discarded. The precipitate was the cell membrane component containing the 5-HT2A receptor. […] First, a standard binding buffer was added to the cell membrane component containing the 5-HT2A receptor, and the cell membrane was disrupted and resuspended with an electric tissue homogenizer. 30 μL of membrane protein suspension was added to each well of a 96-well plate. Then, 30 μL of different drugs were added to the 96-well plate sequentially from bottom to top to ensure that the final drug concentrations were 10^−5 M, 10^−6 M, 10^−7 M, 10^−8 M, 10^−9 M, and 0 M, with two replicates per treatment. Next, 30 μL of [3H]-ketanserin was added to each well of the 96-well plate. The plate was incubated for 2 hours at room temperature in the dark. Detection was conducted. The machine readout value reflected the amount of [3H]-ketanserin bound on the membrane, and after further data processing, the affinity Ki values of different compounds for the 5-HT2A receptor were obtained.

5-HT2A receptor [5] = molecular target: T2, 5-HT2A receptor; assay: 5-HT2A receptor Gαq BRET (G protein trimer dissociation); format: cell-based; conditions: for Emax: read-out: Gαq BRET (Emax %);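 as to all read-outs here: cells transfected with 5-HT2A receptor, Gαq-Rluc, Gβ3 and Gγ9-GFP, BRET read with coelenterazine 400a (5 µM) across a compound dilution series in duplicate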
Protocol: (§2) To examine the downstream G protein signaling pathway mediated by 5-HT2A receptors, on the first day, a 6 cm culture dish was used for transfection with 1 μg of 5-HT2A receptors, 1 μg of Gαq containing C-terminal seaweed luciferase (Gαq-Rluc), 1 μg of Gβ3, 1 μg of Gγ9 containing C-terminal green fluorescent protein (Gγ9-GFP), and 16 μL of PEI. At the same time, in order to examine the downstream β-arrestin2 signaling pathway mediated by 5-HT2A receptors, on the first day, a 6 cm culture dish was used for transfection with 500 μg of 5-HT2A receptors containing C-terminal seaweed luciferase (5-HT2A-Rluc), 500 μg of G protein-coupled receptor kinase 2 (GRK2), 2500 μg of β-arrestin2 containing N-terminal green fluorescent protein (GFP2-ARRB2), and 14 μL of PEI. The next day, the confluent cells of a 6 cm culture dish were digested and reseeded into a 96-well plate with 100 μL of culture medium was added to each well. On the third day, the drugs were added for test. The 96-well plate was taken out from the cell incubator to decant the culture medium, 40 μL of the substrate coelenterazine 400a (final concentration of 5 μM) was added to each well, and then 20 μL of different drugs were added sequentially from left to right to ensure that the final concentration of the drug decreased gradually from bottom to top, with two replicates per treatment. Finally, the prepared samples were loaded on machine for test. The machine readout value reflected the recruitment of β-arrestin2 to the membrane or the dissociation of G protein trimer. The former indicated the degree of activation of the β-arrestin2 signaling pathway downstream of the 5-HT2A receptors, and the latter indicated the degree of activation of the G protein signaling pathway downstream of the 5-HT2A receptors.

5-HT2A receptor [6] = molecular target: T2, 5-HT2A receptor; assay: 5-HT2A receptor β-arrestin2 BRET (recruitment); format: cell-based;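 also: cells co-expressing Rluc-tagged 5-HT2A receptor, GRK2 and GFP2-tagged β-arrestin2, read by BRET with coelenterazine 400a (5 µM) across graded drug concentrations in duplicate, signal reflecting β-arrestin2 membrane recruitment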
Protocol: as §2

5-HT1A receptor [7] = molecular target: T3, 5-HT1A receptor (Homo sapiens (Human), UniProt P08908); assay: Affinity for 5-HT1A receptors, radioligand competition with [3H]-LSD; format: binding;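 also: membranes from cells transiently transfected with 5-HT1A receptor, bound [3H]-LSD displaced by compound at 10^-9 to 10^-5 M, 2 h incubation at room temperature in the dark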
T3 sequence (P08908 whole entry): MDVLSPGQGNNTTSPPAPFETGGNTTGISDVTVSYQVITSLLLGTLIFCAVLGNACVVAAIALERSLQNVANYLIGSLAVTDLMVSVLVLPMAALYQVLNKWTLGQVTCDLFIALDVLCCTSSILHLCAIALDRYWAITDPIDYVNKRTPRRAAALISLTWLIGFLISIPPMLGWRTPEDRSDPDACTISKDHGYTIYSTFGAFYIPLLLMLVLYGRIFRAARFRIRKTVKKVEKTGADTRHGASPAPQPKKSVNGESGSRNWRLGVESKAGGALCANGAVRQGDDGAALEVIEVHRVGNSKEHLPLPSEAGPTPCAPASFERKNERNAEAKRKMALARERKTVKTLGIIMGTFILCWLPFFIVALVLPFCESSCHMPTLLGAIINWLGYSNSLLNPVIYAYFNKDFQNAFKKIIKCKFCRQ
Protocol: The affinity of the compounds of the present disclosure for the 5-HTIA receptors was determined by the method of radioligand competition experiment. In the first step, a cell membrane component containing specific 5-HTIA receptor was prepared. A 10 cm culture dish was used for transfection with 10 ng of the 5-HTIA receptor and 40 μL of PEI. After 48 hours, the 10 cm culture dish was taken out from the cell incubator and the cultured cells had expressed the 5-HTIA receptor. A vacuum pump was used to suck off the culture medium, 3 mL of lysis buffer was added to each culture dish, and the cells were placed in a 4° C. cold room for 10 minutes. After the cells were detached, the cells were transferred to a 15 mL centrifuge tube and centrifuged at 1500 rpm for 5 minutes at 4° C., and the supernatant was discarded. The cell pellet was transferred to a tissue homogenizer, and 3 mL of lysis buffer was added and fully ground until the cells were broken. Then, cell suspension was equally aliquoted into several EP tubes, centrifuged at 12000 rpm for 5 minutes at 4° C., and the supernatant was discarded. The precipitate was the cell membrane component containing the 5-HT1A receptor. […] First, a standard binding buffer was added to the cell membrane component containing the 5-HT1A receptor, and the cell membrane was disrupted and resuspended with an electric tissue homogenizer. 30 μL of membrane protein suspension was added to each well of a 96-well plate. Then, 30 μL of different drugs were added to the 96-well plate sequentially from bottom to top to ensure that the final drug concentrations were 10^−5 M, 10^−6 M, 10^−7 M, 10^−8 M, 10^−9 M, and 0 M, with two replicates per treatment. Next, 30 μL of [3H]-LSD was added to each well of the 96-well plate. The plate was incubated for 2 hours at room temperature in the dark. Detection was conducted. The machine readout value reflected the amount of [3H]-LSD bound on the membrane, and after further data processing, the affinity Ki values of different compounds for the 5-HTIA receptor were obtained. To examine the downstream G protein signaling pathway mediated by 5-HTIA receptors, on the first day, a 6 cm culture dish was used for transfection with 1 μg of 5-HTIA receptors, 1 μg of Gαi1 containing C-terminal seaweed luciferase (Gαi1-Rluc), 1 μg of Gβ3, 1 μg of Gγ9 containing C-terminal green fluorescent protein (Gγ9-GFP), and 16 μL of PEI. The next day, the confluent cells of a 6 cm culture dish were digested and reseeded into a 96-well plate with 100 μL of culture medium was added to each well. On the third day, the drugs were added for test. The 96-well plate was taken out from the cell incubator to decant the culture medium, 40 μL of the substrate coelenterazine 400a (final concentration of 5 μM) was added to each well, and then 20 μL of different drugs were added sequentially from left to right to ensure that the final concentration of the drug decreased gradually from bottom to top, with two replicates per treatment. Finally, the prepared samples were loaded on machine for test. The machine readout value reflected the dissociation of G protein trimer, and thereby indicated the degree of activation of the G protein signaling pathway downstream of the 5-HTIA receptors.

5-HT1A receptor [8] = molecular target: T3, 5-HT1A receptor; assay: 5-HT1A receptor Gαi1 BRET (G protein trimer dissociation); format: cell-based;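 also: cells transiently co-expressing 5-HT1A receptor, luciferase-tagged Gαi1, Gβ3 and GFP-tagged Gγ9, seeded in 96-well plates for BRET measurement of G protein signaling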
[9] = D2 receptor, G protein pathway, read-out: Gαi1 BRET EC50
[10] = D2 receptor, β-arrestin2 pathway, read-out: β-arrestin2 BRET EC50
[11] = 5-HT2A receptor, G protein pathway, read-out: Gαq BRET EC50
[12] = 5-HT2A receptor, β-arrestin2 pathway
[13] = 5-HT2A receptor, β-arrestin2 pathway, read-out: β-arrestin2 BRET EC50
[14] = 293T membrane transiently expressing 5-HT1A, [3H]-LSD, read-out: 5-HT1A affinity Ki
[15] = 5-HT1A receptor, G protein pathway
[16] = 5-HT1A receptor, G protein pathway, read-out: Gαi1 BRET EC50

T1 sequence (P14416 whole entry): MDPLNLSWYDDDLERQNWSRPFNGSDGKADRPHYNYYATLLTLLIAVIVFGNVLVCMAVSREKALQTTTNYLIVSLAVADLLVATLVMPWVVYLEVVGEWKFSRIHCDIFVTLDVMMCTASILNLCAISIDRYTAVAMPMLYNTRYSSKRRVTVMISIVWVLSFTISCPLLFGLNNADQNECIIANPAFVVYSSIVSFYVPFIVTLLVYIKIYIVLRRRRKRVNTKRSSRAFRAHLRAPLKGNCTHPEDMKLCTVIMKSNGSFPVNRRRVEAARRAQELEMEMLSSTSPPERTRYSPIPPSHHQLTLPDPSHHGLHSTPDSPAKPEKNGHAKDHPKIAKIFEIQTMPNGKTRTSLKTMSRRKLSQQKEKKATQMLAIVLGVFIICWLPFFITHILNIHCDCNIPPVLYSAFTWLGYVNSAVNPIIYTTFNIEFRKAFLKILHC

Compound: CCCN1CCN2c3cccc4scc(c34)CC2C1 (stereo not drawn) [Compound I-2, 8-Propyl-6,6a,7,8,9,10-Hexahydropyrazino[1,2-a]Thieno [4,3,2-De]Quinoline]
- Ki (dopamine D2 receptors [1]): 380 nM
- EC50 (dopamine D2 receptors [2]; [9]): 747 nM
- Emax (dopamine D2 receptors [2]): 12.1%
- EC50 (dopamine D2 receptors [3]; [10]): 19.3 nM
- Emax (dopamine D2 receptors [3]): 27.6%
- Ki (5-HT2A receptor [4]): 710 nM
- EC50 (5-HT2A receptor [5]; [11]): 2.41 nM
- Emax (5-HT2A receptor [5]): 7.6%
- Emax (5-HT2A receptor [6]; [12]): 66.3%
- EC50 (5-HT2A receptor [6]; [13]): 298 nM
- Ki (5-HT1A receptor [7]; [14]): 3420 nM
- Emax (5-HT1A receptor [8]; [15]): 72%
- EC50 (5-HT1A receptor [8]; [16]): 7.72 µM

Compound: OCCN1CCN2c3cccc4scc(c34)CC2C1 (stereo not drawn) [Compound I-3, 2-(6a,7,9,10-Tetrahydropyrazino[1,2-a]Thieno [4,3,2-De]Quinolin-8 (6H)-Yl) Ethan-1-Ol]
- Ki (dopamine D2 receptors [1]): > 10000 nM
- EC50 (dopamine D2 receptors [2]): 40.7 nM
- Emax (dopamine D2 receptors [2]): 22.5%
- EC50 (dopamine D2 receptors [3]): 189 nM
- Emax (dopamine D2 receptors [3]): 14.2%
- Ki (5-HT2A receptor [4]): 4130 nM
- EC50 (5-HT2A receptor [5]): 1520 nM
- Emax (5-HT2A receptor [5]): 43.6%
- EC50 (5-HT2A receptor [6]): 638 nM
- Emax (5-HT2A receptor [6]; [12]): 90%
- Ki (5-HT1A receptor [7]): 4410 nM
- EC50 (5-HT1A receptor [8]): 24.2 µM
- Emax (5-HT1A receptor [8]; [15]): 62%

Compound: Fc1ccc(CCN2CCN3c4cccc5scc(c45)CC3C2)cc1 (stereo not drawn) [Compound I-5, 8-(4-Fluorophenylethyl)-6,6a,7,8,9,10-Hexahydropyrazino[1,2-a]Thieno [4,3,2-De]Quinoline]
- Ki (dopamine D2 receptors [1]): 7500 nM
- EC50 (dopamine D2 receptors [2]; [9]): 193 nM
- Emax (dopamine D2 receptors [2]): 53.8%
- EC50 (dopamine D2 receptors [3]; [10]): 370 nM
- Emax (dopamine D2 receptors [3]): 27.2%
- Ki (5-HT2A receptor [4]): 920 nM
- Emax (5-HT2A receptor [5]): 50%
- EC50 (5-HT2A receptor [5]; read-out: Gαq BRET EC50): 1100 nM
- Emax (5-HT2A receptor [6]; [12]): 27.3%
- EC50 (5-HT2A receptor [6]; read-out: β-arrestin2 BRET EC50): 946 nM
- Ki (5-HT1A receptor [7]; [14]): 280 nM
- Emax (5-HT1A receptor [8]; [15]): 91%
- EC50 (5-HT1A receptor [8]; [16]): 3.13 µM

Compound: Fc1ccc(-c2cncc(CN3CCN4c5cccc6scc(c56)CC4C3)c2)cc1 (stereo not drawn) [Compound I-8, 8-((5-(4-Fluorophenyl)Pyridin-3-Yl)Methyl)-6,6a,7,8,9,10-Hexahydropyrazino[1,2-a]Thieno [4,3,2-De]Quinoline]
- Ki (dopamine D2 receptors [1]): 440 nM
- EC50 (dopamine D2 receptors [2]; [9]): 531 nM
- Emax (dopamine D2 receptors [2]): 15.9%
- EC50 (dopamine D2 receptors [3]; [10]): 371 nM
- Emax (dopamine D2 receptors [3]): 14.1%
- Ki (5-HT2A receptor [4]): 1460 nM
- EC50 (5-HT2A receptor [5]; [11]): 4540 nM
- Emax (5-HT2A receptor [5]): 21%
- Emax (5-HT2A receptor [6]; [12]): 84.2%
- EC50 (5-HT2A receptor [6]; [13]): 1290 nM
- Ki (5-HT1A receptor [7]; [14]): 9850 nM
- Emax (5-HT1A receptor [8]; [15]): 53%
- EC50 (5-HT1A receptor [8]; [16]): 16.3 µM

Compound: O=c1ccc2ccc(OCCCN3CCN4c5cccc6scc(c56)CC4C3)cc2[nH]1 (stereo not drawn) [Compound I-17, 7-(3-(6a,7,9,10-Tetrahydropyrazino[1,2-a]Thieno [4,3,2-De]Quinolin-8 (6H)-Yl) Propoxy) Quinolin-2 (1H)-One]
- Ki (dopamine D2 receptors [1]): 290 nM
- EC50 (dopamine D2 receptors [2]; [9]): 18.5 nM
- Emax (dopamine D2 receptors [2]): 81.6%
- EC50 (dopamine D2 receptors [3]; [10]): 91.6 nM
- Emax (dopamine D2 receptors [3]): 66.8%
- Ki (5-HT2A receptor [4]): 750 nM
- EC50 (5-HT2A receptor [5]; [11]): 279 nM
- Emax (5-HT2A receptor [5]): 23.4%
- Emax (5-HT2A receptor [6]; [12]): 92.2%
- EC50 (5-HT2A receptor [6]; [13]): 1270 nM
- Ki (5-HT1A receptor [7]; [14]): 340 nM
- Emax (5-HT1A receptor [8]; [15]): 86%
- EC50 (5-HT1A receptor [8]; [16]): 0.754 µM

Compound: O=C1c2ccccc2CN1CCCCN1CCN2c3cccc4scc(c34)CC2C1 (stereo not drawn) [Compound I-22, 2-(4-(6a,7,9,10-Tetrahydropyrazino[1,2-a]Thieno [4,3,2-De]Quinolin-8 (6H)-Yl)Butyl) Isoindolin-1-One]
- Ki (dopamine D2 receptors [1]): 490 nM
- EC50 (dopamine D2 receptors [2]; [9]): 161 nM
- Emax (dopamine D2 receptors [2]): 37%
- EC50 (dopamine D2 receptors [3]; [10]): 328 nM
- Emax (dopamine D2 receptors [3]): 24.8%
- Ki (5-HT2A receptor [4]): 1200 nM
- EC50 (5-HT2A receptor [5]; [11]): 966 nM
- Emax (5-HT2A receptor [5]): 13.8%
- Emax (5-HT2A receptor [6]; [12]): 64.6%
- EC50 (5-HT2A receptor [6]; [13]): 3470 nM
- Ki (5-HT1A receptor [7]; [14]): 350 nM
- Emax (5-HT1A receptor [8]; [15]): 87%
- EC50 (5-HT1A receptor [8]; [16]): 1.47 µM

Compound: COc1cc2c(cc1OC)C(=O)N(CCCCN1CCN3c4cccc5scc(c45)CC3C1)C2 (stereo not drawn) [Compound I-23, 5,6-Dimethoxy-2-(4-(6a,7,9,10-Tetrahydropyrazino[1,2-a]Thieno [4,3,2-De]Quinolin-8 (6H)-Yl)Butyl) Isoindolin-1-One]
- Ki (dopamine D2 receptors [1]): 750 nM
- EC50 (dopamine D2 receptors [2]; [9]): 282 nM
- Emax (dopamine D2 receptors [2]): 61.9%
- EC50 (dopamine D2 receptors [3]; [10]): 130 nM
- Emax (dopamine D2 receptors [3]): 38.5%
- Ki (5-HT2A receptor [4]): 160 nM
- EC50 (5-HT2A receptor [5]; [11]): 245 nM
- Emax (5-HT2A receptor [5]): 18.9%
- Emax (5-HT2A receptor [6]; [12]): 138%
- EC50 (5-HT2A receptor [6]; [13]): 8060 nM
- Ki (5-HT1A receptor [7]; [14]): 4130 nM
- Emax (5-HT1A receptor [8]; [15]): 71%
- EC50 (5-HT1A receptor [8]; [16]): 6.7 µM

Compound: CN(C)C(=O)N[C@H]1CC[C@H](CCN2CCN3c4cccc5scc(c45)CC3C2)CC1 (stereo partly drawn) [Compound I-27, 1,1-Dimethyl-3-(4-(2-(6a, 7,9,10-Tetrahydropyrazino[1,2-a]Thieno [4,3,2-De]Quinolin-8 (6H)-Yl)Ethyl) Trans-Cyclohexyl) Urea]
- Ki (dopamine D2 receptors [1]): 80 nM
- EC50 (dopamine D2 receptors [2]; [9]): 3.87 nM
- Emax (dopamine D2 receptors [2]): 73.6%
- EC50 (dopamine D2 receptors [3]; [10]): 10.2 nM
- Emax (dopamine D2 receptors [3]): 52.1%
- Ki (5-HT2A receptor [4]): 210 nM
- EC50 (5-HT2A receptor [5]; [11]): 158 nM
- Emax (5-HT2A receptor [5]): 9.57%
- Emax (5-HT2A receptor [6]; [12]): 34.7%
- EC50 (5-HT2A receptor [6]; [13]): 13.8 nM
- Ki (5-HT1A receptor [7]; [14]): 160 nM
- Emax (5-HT1A receptor [8]; [15]): 64%
- EC50 (5-HT1A receptor [8]; [16]): 0.164 µM

Compound: O=C(N[C@H]1CC[C@H](CCN2CCN3c4cccc5scc(c45)CC3C2)CC1)N1CCCCC1 (stereo partly drawn) [Compound I-29, N-(4-(2-(6a,7,9,10-Tetrahydropyrazino[1,2-a]Thieno [4,3,2-De]Quinolin-8 (6H)-Yl)Ethyl) Trans-Cyclohexyl) Piperidine-1-Carboxamide]
- Ki (dopamine D2 receptors [1]): 180 nM
- EC50 (dopamine D2 receptors [2]; [9]): 32.2 nM
- Emax (dopamine D2 receptors [2]): 45.2%
- EC50 (dopamine D2 receptors [3]; [10]): 102 nM
- Emax (dopamine D2 receptors [3]): 31.8%
- Ki (5-HT2A receptor [4]): 450 nM
- EC50 (5-HT2A receptor [5]; [11]): 299 nM
- Emax (5-HT2A receptor [5]): 8.61%
- Emax (5-HT2A receptor [6]; [12]): 21.8%
- EC50 (5-HT2A receptor [6]; [13]): 30.2 nM
- Ki (5-HT1A receptor [7]; [14]): 120 nM
- Emax (5-HT1A receptor [8]; [15]): 62%
- EC50 (5-HT1A receptor [8]; [16]): 1.48 µM

Source: patent US20240383913A1, “THIOPHENE RING COMPOUND, PREPARATION METHOD THEREFOR AND APPLICATION THEREOF” (CENTER FOR EXCELLENCE IN MOLECULAR CELL SCIENCE, CHINESE …, priority 2021, published 2024)
